From patent publication US11572590B2, “Methods for evaluating tumor cell spheroids using 3D microfluidic cell culture device” (Dana-Farber Cancer Institute, Inc., priority 2017, dated 2023)
Like-named read-outs stand apart in the source and are kept apart here.

Assays:
Assay in all cases: SelectScreen Kinase Profiling, single point inhibition and IC50 for off-target kinases
Format in all cases: biochemical
off-target kinases [1] = biological target: off-target kinases (Homo sapiens, UniProt P42684); settings: ABL2 (Arg), ZLYTE, ATP Km app
off-target kinases (Homo sapiens, UniProt P42684), sequence (P42684 whole entry): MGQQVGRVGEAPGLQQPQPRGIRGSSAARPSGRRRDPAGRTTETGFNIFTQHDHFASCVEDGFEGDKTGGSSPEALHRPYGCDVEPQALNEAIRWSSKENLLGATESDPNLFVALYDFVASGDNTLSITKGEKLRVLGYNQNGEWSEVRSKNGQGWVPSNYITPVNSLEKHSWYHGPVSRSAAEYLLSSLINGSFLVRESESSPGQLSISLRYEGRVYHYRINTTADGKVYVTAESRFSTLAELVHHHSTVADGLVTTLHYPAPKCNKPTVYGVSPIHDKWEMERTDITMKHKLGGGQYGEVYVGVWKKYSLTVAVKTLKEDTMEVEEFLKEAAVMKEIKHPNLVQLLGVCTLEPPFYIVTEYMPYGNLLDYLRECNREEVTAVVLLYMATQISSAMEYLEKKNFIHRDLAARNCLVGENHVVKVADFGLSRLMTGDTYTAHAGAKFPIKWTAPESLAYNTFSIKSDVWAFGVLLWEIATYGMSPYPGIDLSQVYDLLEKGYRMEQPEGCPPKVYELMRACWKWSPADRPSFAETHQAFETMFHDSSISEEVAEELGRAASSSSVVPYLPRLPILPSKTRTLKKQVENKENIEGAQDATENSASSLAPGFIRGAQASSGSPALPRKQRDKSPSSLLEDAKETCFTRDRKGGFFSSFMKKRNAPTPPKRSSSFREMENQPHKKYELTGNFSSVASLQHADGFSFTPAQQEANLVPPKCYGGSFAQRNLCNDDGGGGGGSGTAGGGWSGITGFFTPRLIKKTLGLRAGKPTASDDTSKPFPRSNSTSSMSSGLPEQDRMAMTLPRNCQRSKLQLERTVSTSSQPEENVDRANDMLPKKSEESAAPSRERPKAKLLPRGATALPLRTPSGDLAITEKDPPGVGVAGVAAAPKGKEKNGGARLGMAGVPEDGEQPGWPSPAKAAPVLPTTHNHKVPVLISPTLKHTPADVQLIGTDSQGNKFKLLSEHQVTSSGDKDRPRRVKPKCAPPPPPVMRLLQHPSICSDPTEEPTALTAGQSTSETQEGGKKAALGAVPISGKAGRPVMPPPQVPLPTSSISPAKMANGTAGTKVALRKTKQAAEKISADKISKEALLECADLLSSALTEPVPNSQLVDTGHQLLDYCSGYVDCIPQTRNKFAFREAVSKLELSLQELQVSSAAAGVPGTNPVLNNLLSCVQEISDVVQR

off-target kinases [2] = biological target: T1, off-target kinases (Homo sapiens, UniProt Q9HBY8); settings: SGK2, ZLYTE, ATP Km app
T1 sequence (Q9HBY8 1-367): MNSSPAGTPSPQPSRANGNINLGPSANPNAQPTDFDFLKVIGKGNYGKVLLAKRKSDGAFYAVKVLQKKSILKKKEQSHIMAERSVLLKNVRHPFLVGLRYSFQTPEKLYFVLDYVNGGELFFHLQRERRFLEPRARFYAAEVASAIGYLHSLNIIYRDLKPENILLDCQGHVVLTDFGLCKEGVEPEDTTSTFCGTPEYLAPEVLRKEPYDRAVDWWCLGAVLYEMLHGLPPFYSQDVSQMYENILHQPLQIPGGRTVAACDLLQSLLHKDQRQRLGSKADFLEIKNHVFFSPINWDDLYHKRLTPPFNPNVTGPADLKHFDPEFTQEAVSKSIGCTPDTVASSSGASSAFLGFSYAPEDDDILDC

off-target kinases [3] = biological target: off-target kinases (Homo sapiens, UniProt P68400); settings: CSNK2A1 (CK2 alpha 1), ZLYTE, ATP Km app
off-target kinases (Homo sapiens, UniProt P68400), sequence (P68400 whole entry): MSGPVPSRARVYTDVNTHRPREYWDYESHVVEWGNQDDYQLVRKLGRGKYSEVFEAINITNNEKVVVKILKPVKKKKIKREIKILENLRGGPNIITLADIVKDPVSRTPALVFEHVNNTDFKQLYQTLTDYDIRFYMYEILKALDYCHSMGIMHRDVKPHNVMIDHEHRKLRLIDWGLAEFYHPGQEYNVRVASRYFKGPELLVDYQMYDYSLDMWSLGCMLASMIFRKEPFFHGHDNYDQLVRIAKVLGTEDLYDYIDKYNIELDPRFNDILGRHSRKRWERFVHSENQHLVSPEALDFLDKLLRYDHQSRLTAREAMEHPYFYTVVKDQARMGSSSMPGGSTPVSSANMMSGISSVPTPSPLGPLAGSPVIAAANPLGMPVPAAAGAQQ

off-target kinases [4] = biological target: T2, off-target kinases (Homo sapiens, UniProt O14920); settings: IKBKB (IKK beta), ATP Km app, ZLYTE
T2 sequence (O14920 1-756): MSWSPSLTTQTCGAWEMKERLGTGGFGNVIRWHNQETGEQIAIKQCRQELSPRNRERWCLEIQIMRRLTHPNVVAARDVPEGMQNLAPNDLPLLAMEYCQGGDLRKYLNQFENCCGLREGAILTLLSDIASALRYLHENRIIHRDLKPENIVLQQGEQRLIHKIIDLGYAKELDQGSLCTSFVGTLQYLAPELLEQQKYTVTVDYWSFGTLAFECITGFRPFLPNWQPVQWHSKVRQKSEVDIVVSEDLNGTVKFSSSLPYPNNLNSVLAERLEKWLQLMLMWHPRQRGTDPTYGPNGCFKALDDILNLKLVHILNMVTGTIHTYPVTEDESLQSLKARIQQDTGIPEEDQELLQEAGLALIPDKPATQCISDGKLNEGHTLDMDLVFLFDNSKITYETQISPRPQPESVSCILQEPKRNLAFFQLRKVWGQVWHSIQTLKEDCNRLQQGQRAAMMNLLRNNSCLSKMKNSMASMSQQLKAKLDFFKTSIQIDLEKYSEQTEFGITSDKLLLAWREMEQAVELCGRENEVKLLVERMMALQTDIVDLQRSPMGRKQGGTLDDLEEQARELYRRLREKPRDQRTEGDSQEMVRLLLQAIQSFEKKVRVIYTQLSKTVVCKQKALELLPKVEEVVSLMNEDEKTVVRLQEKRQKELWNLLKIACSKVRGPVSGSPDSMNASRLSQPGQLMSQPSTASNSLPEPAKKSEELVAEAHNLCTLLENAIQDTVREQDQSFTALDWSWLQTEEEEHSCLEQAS

## N#Cc1cc(-c2ncnc(Nc3ccc(N4CCN(C5COC5)CC4)cc3)n2)ccc1OC1CCOCC1 [Compound 1, 5-(4-((4-(4-(oxetan-3-yl)piperazin-1-yl)phenyl)amino)-1,3,5-triazin-2-yl)-2-((tetrahydro-2H-pyran-4-yl)oxy)benzonitrile]
off-target kinases [1]; read-out: % Inhibition 1
  inhibition: 40%
off-target kinases [1]; read-out: % Inhibition 2
  inhibition: 39%
off-target kinases [1]; read-out: % Inhibition Avg
  inhibition: 40%
off-target kinases [2]; read-out: % Inhibition 1
  inhibition: 7%
off-target kinases [2]; read-out: % Inhibition 2
  inhibition: 12%
off-target kinases [2]; read-out: % Inhibition Avg
  inhibition: 10%
off-target kinases [3]; read-out: % Inhibition 1
  inhibition: 13%
off-target kinases [3]; read-out: % Inhibition 2
  inhibition: 7%
off-target kinases [3]; read-out: % Inhibition Avg
  inhibition: 10%
off-target kinases [4]; read-out: % Inhibition 1
  inhibition: 52%
off-target kinases [4]; read-out: % Inhibition 2
  inhibition: 39%
off-target kinases [4]; read-out: % Inhibition Avg
  inhibition: 45%
